Source: the supplement of paper PMC10307832

Legend:
Assay in all cases: relative viability (nuclei count vs DMSO), 5 days (fraction); higher = more cells survive
IPA-3 + AZD7762 = compound: C1=CC=C2C(=C1)C=CC(=C2SSC3=C(C=CC4=CC=CC=C43)O)O [IPA-3] + NC(=O)Nc1cc(-c2cccc(F)c2)sc1C(=O)N[C@H]1CCCNC1 [AZD7762] (partner 0.2 µM)
Procedure, shortened: (§1)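 Lung cancer cell lines in 1536-well plates got either a single drug or a fixed anchor-drug dose together with five library-drug doses (not always all listed) in √10 steps, by pin tool, on the day after seeding. Nuclei were counted after 5 days, and relative viability is the treated-to-vehicle ratio of nuclei counts. Values are medians of duplicate plates.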

IPA-3 + Vorinostat = compound: C1=CC=C2C(=C1)C=CC(=C2SSC3=C(C=CC4=CC=CC=C43)O)O [IPA-3] + O=C(CCCCCCC(=O)Nc1ccccc1)NO [Vorinostat] (partner 1 µM)
Procedure, shortened: as §1

IPA-3 + Olaparib = compound: C1=CC=C2C(=C1)C=CC(=C2SSC3=C(C=CC4=CC=CC=C43)O)O [IPA-3] + O=C(c1cc(Cc2n[nH]c(=O)c3ccccc23)ccc1F)N1CCN(C(=O)C2CC2)CC1 [Olaparib] (partner 8 µM)
Procedure, shortened: as §1

Doramapimod + Vorinostat = compound: Cc1ccc(-n2nc(C(C)(C)C)cc2NC(=O)Nc2ccc(OCCN3CCOCC3)c3ccccc23)cc1 [Doramapimod] + O=C(CCCCCCC(=O)Nc1ccccc1)NO [Vorinostat] (partner 1 µM)
Procedure, shortened: as §1

| Cell Line | relative viability (IPA-3 + AZD7762; first compound 0.2 µM) | relative viability (IPA-3 + AZD7762; first compound 0.6325 µM) | relative viability (IPA-3 + AZD7762; first compound 2 µM) | relative viability (IPA-3 + AZD7762; first compound 6.325 µM) | relative viability (IPA-3 + AZD7762; first compound 20 µM) | relative viability (IPA-3 + Vorinostat; first compound 0.2 µM) | relative viability (IPA-3 + Vorinostat; first compound 0.6325 µM) | relative viability (IPA-3 + Vorinostat; first compound 2 µM) | relative viability (IPA-3 + Vorinostat; first compound 6.325 µM) | relative viability (IPA-3 + Vorinostat; first compound 20 µM) | relative viability (IPA-3 + Olaparib; first compound 0.2 µM) | relative viability (IPA-3 + Olaparib; first compound 0.6325 µM) | relative viability (IPA-3 + Olaparib; first compound 2 µM) | relative viability (IPA-3 + Olaparib; first compound 6.325 µM) | relative viability (IPA-3 + Olaparib; first compound 20 µM) | relative viability (Doramapimod + Vorinostat; first compound 0.02 µM) | relative viability (Doramapimod + Vorinostat; first compound 0.06325 µM) | relative viability (Doramapimod + Vorinostat; first compound 0.2 µM) | relative viability (Doramapimod + Vorinostat; first compound 0.6325 µM) | relative viability (Doramapimod + Vorinostat; first compound 2 µM) |
| --- | --- | --- | --- | --- | --- | --- | --- | --- | --- | --- | --- | --- | --- | --- | --- | --- | --- | --- | --- | --- |
| LK-2 | 0.456 | 0.394 | 0.355 | 0.672 | 0.397 | 0.321 | 0.321 | 0.429 | 0.553 | 0.506 | 0.831 | 0.615 | 0.788 | 0.988 | 0.938 | 0.283 | 0.296 | 0.266 | 0.242 | 0.29 |
| NCI-H2405 | 0.89 | 0.806 | 0.847 | 0.771 | 0.73 | 1.17 | 1.11 | 1.11 | 0.922 | 1.04 | 0.994 | 0.832 | 0.939 | 0.865 | 0.9 | 1.1 | 1.12 | 1.22 | 0.958 | 1.02 |
| NCI-H2087 | 1.52 | 1.29 | 1.43 | 1.07 | 1.35 | 0.72 | 0.841 | 0.727 | 0.668 | 0.821 | 0.685 | 0.631 | 0.642 | 0.474 | 0.763 | 0.932 | 0.764 | 0.668 | 0.718 | 0.669 |
| NCI-H460 | 0.756 | 0.704 | 0.632 | 0.7 | 0.634 | 0.94 | 0.665 | 0.729 | 0.626 | 0.504 | 0.575 | 0.393 | 0.454 | 0.418 | 0.447 | 0.773 | 0.817 | 0.76 | 0.794 | 0.551 |
| LOU-NH91 | 0.8 | 0.747 | 0.799 | 0.76 | 0.788 | 0.946 | 0.804 | 0.902 | 0.87 | 1.08 | 0.953 | 0.911 | 0.965 | 0.896 | 1.03 | 0.966 | 0.944 | 0.945 | 0.847 | 0.632 |
| NCI-H1651 | 0.573 | 0.473 | 0.411 | 0.554 | 0.499 | 0.608 | 0.612 | 0.61 | 0.645 | 0.592 | 0.198 | 0.187 | 0.189 | 0.179 | 0.178 | 0.514 | 0.604 | 0.602 | 0.623 | 0.552 |
| NCI-H441 | 1.32 | 0.972 | 1.33 | 1.21 | 1.22 | 0.881 | 0.637 | 0.748 | 0.731 | 0.948 | 0.759 | 0.507 | 0.48 | 0.409 | 0.432 | 0.72 | 0.851 | 0.591 | 0.798 | 0.644 |
